# Measured values: patent US20040048834A1, “Antitumoral compounds” (priority 2000, published 2004)
# Counter-ions that a name gives are not always drawn. Like-named read-outs stand apart in the source and are kept apart here.
# Key:
# Assay type in all cases: cell-based
# [1] = tested on: P388; experiment: Cytotoxicity of spisulosine analogs, P388 (after Berjeron et al); details: methodology after Berjeron et al, NA=not active, read-out: Cytotoxicity IC50 P388
# [2] = tested on: A549; experiment: Cytotoxicity of spisulosine analogs, A549 (after Berjeron et al); details: methodology after Berjeron et al, NA=not active, read-out: Cytotoxicity IC50 A549
# [3] = tested on: HT29; experiment: Cytotoxicity of spisulosine analogs, HT29 (after Berjeron et al); details: methodology after Berjeron et al, NA=not active, read-out: Cytotoxicity IC50 HT29
# [4] = tested on: MEL28; experiment: Cytotoxicity of spisulosine analogs, MEL28 (after Berjeron et al); details: methodology after Berjeron et al, NA=not active, read-out: Cytotoxicity IC50 MEL28
# [5] = tested on: DU145; experiment: Cytotoxicity of spisulosine analogs, DU145 (after Berjeron et al); details: methodology after Berjeron et al, NA=not active, read-out: Cytotoxicity IC50 DU145
smiles,measurement,setting,value
"CCCCCCCCCCCCC[C@@H](O)[C@H](C)N [drawing 41, (2S,3R)-2-Amino-3-hexadecanol]",IC50,"[1]; Mus musculus, P388, P388",388 nM
same,IC50,[2]; A549,194 nM
same,IC50,[3]; HT29,388 nM
same,IC50,"[4]; Homo sapiens, SK-MEL-28, MEL28",368 nM
same,IC50,"[5]; Homo sapiens, DU-145, DU145",194 nM
"CCCCCCCCCCCCC[C@@H](O)[C@H](C)N [drawing 42, (2S,3R)-2-Amin-3-hexadecanol hydrochloride]",IC50,"[2]; A549, hydrochloride",3.4 nM
same,IC50,"[3]; HT29, hydrochloride",3.4 nM
"CCCCCCCCCCCCCC[C@@H](O)[C@H](C)N [drawing 44, (2S,3R)-2-Amino-3-heptadecanol]",IC50,"[1]; Mus musculus, P388, P388",36.8 nM
same,IC50,"[2]; Homo sapiens, A549, A549",36.8 nM
same,IC50,"[3]; Homo sapiens, HT-29, HT29",36.8 nM
same,IC50,"[4]; Homo sapiens, SK-MEL-28, MEL28",36.8 nM
same,IC50,"[5]; Homo sapiens, DU-145, DU145",36.8 nM
"CCCCCCCCCCCCCC[C@@H](O)[C@H](C)N [drawing 45, (2S,3R)-2-Amino-3-heptadecanol hydrochloride]",IC50,"[2]; A549, hydrochloride",32.5 nM
same,IC50,"[3]; HT29, hydrochloride",32.5 nM
"CCCCCCCCCCCCCCC[C@@H](O)[C@H](C)N [drawing 46, Bis-((2S,3R)-2-ammonium-3-octadecanol) L-tartrate]",IC50,"[1]; Mus musculus, P388, P388",27.7 nM
same,IC50,"[2]; Homo sapiens, A549, A549",27.7 nM
same,IC50,"[3]; Homo sapiens, HT-29, HT29",27.7 nM
same,IC50,[4]; MEL28,27.7 nM
same,IC50,"[5]; Homo sapiens, DU-145, DU145",27.7 nM
"CCCCCCCCCCCCCCC[C@@H](O)[C@H](C)N [drawing 47, (2S,3R)-2-Amino-3-octadecanol hydrochloride]",IC50,"[1]; P388, hydrochloride",31.1 nM
same,IC50,"[2]; A549, hydrochloride",31.1 nM
same,IC50,"[3]; HT29, hydrochloride",15.5 nM
same,IC50,"[4]; MEL28, hydrochloride",311 nM
same,IC50,"[5]; DU145, hydrochloride",31.1 nM
"CCCCCCCCCCCCCCCC[C@@H](O)[C@H](C)N [drawing 49, (2S,3R)-2-Amino-3-nonadecanol hydrochloride]",IC50,"[2]; Homo sapiens, A549, A549",29.8 nM
same,IC50,"[3]; Homo sapiens, HT-29, HT29",29.8 nM
"CCCCCCCCCCCCCCCCC[C@@H](O)[C@H](C)N [drawing 51, (2S,3R)-2-Amino-3-eicosanol hydrochloride]",IC50,"[2]; A549, hydrochloride",14.3 nM
same,IC50,"[3]; HT29, hydrochloride",14.3 nM
"CCCCCCCCCCCCCCCCCC[C@@H](O)[C@H](C)N [drawing 53, (2S,3R)-2-Amino-3-heneicosanol hydrochloride]",IC50,"[2]; A549, hydrochloride",27.5 nM
same,IC50,"[3]; HT29, hydrochloride",27.5 nM
"CCCCCCCCCCCCCC[C@@H](O)[C@@H](N)CC [drawing 56, (3S,4R)-3-Amino-4-octadecanol]",IC50,[2]; A549,3.5 nM
same,IC50,[3]; HT29,3.5 nM
"CCCCCCCCCCCCCC[C@@H](O)[C@@H](N)CC [drawing 57, (3s,4R)-3-Amino-4-octadecanol hydrocloride]",IC50,[2]; A549,15.5 nM
same,IC50,[3]; HT29,15.5 nM
"CCCCCCCCCCCCCCC[C@@H](O)[C@@H](N)CC [drawing 59, (3S,4R)-3-Amino-4-nonadecanol hydrochloride]",IC50,"[2]; A549, hydrochloride",2.98 nM
same,IC50,"[3]; HT29, hydrochloride",2.98 nM
"CCCCCCCCCCCCCCCC[C@@H](O)[C@@H](N)CC [drawing 60, (3S,4R)-3-Amino-4-eicosanol]",IC50,[2]; A549,319 nM
same,IC50,[3]; HT29,319 nM
"CCCCCCCCCCCCCCCC[C@@H](O)[C@@H](N)CC [drawing 61, (3S,4R)-3-Amino-4-eicosanol hydrochloride]",IC50,"[2]; A549, hydrochloride",28.6 nM
same,IC50,"[3]; HT29, hydrochloride",28.6 nM
"CCCCCCCCCCCCCCCCC[C@@H](O)[C@@H](N)CC [drawing 62, (3S,4R)-3-Amino-4-heneicosanol]",IC50,"[2]; Homo sapiens, A549, A549",30.5 nM
same,IC50,"[3]; Homo sapiens, HT-29, HT29",30.5 nM
"CCCCCCCCCCCCCCCCC[C@@H](O)[C@@H](N)CC [drawing 63, (3S,4R)-3-Amino-4-heneicosanol hydrochloride]",IC50,"[2]; A549, hydrochloride",27.5 nM
same,IC50,"[3]; HT29, hydrochloride",27.5 nM
"CCCCCCCCCCCCCCC[C@@H](O)[C@@H](N)CCC [drawing 64, (4S,5R)-4-Amino-5-eicosanol]",IC50,[2]; A549,159 nM
same,IC50,[3]; HT29,159 nM
"CCCCCCCCCCCCCCC[C@@H](O)[C@@H](N)CCC [drawing 65, (4S,5R)-4-Amino-5-eicosanol hydrochloride]",IC50,"[2]; A549, hydrochloride",28.6 nM
same,IC50,"[3]; HT29, hydrochloride",28.6 nM
"CCCCCCCCCCCCCCC[C@@H](O)[C@@H](N)Cc1ccc(O)cc1 [drawing 69, (2S,3R)-2-Amino-1-(4′-hydroxyphenyl)-3-octadecanol]",IC50,[2]; A549,1320 nM
same,IC50,[3]; HT29,1320 nM
"CCCCCCCCCCCCCCC[C@@H](O)[C@@H](N)Cc1ccc(O)cc1 [drawing 70, (2S,3R)-2-Amino-1-(4′-hydroxyphenyl)-3-octadecanol hydrochloride]",IC50,"[2]; A549, hydrochloride",242 nM
same,IC50,"[3]; HT29, hydrochloride",242 nM
"CCCCCCCCCCCCCCC[C@@H](O)[C@@H](N)CCCN [drawing 71, (4S,5R)-1,4-Diamino-5-eicosanol]",IC50,"[2]; Homo sapiens, A549, A549",1520 nM
same,IC50,"[3]; Homo sapiens, HT-29, HT29",1520 nM
"CCCCCCCCCCCCCCC[C@@H](O)[C@@H](N)CCCN [drawing 72, (4S,5R)-1,4-Diamino-5-eicosanol dihydrochloride]",IC50,"[2]; A549, dihydrochloride",1240 nM
same,IC50,"[3]; HT29, dihydrochloride",1240 nM
